What was measured:
human GR [1] = biological target: T1, human GR (Homo sapiens, UniProt P04150); experiment: Trans-Activation Modulation of Glucocorticoid Receptor (GRAMMER), MMTV-LUC reporter gene; type: cell-based; set-up: endogenous in cells; details: for Emax: A549; for EC50: A549 cells, IP = inflection point
T1 sequence (P04150 1-777): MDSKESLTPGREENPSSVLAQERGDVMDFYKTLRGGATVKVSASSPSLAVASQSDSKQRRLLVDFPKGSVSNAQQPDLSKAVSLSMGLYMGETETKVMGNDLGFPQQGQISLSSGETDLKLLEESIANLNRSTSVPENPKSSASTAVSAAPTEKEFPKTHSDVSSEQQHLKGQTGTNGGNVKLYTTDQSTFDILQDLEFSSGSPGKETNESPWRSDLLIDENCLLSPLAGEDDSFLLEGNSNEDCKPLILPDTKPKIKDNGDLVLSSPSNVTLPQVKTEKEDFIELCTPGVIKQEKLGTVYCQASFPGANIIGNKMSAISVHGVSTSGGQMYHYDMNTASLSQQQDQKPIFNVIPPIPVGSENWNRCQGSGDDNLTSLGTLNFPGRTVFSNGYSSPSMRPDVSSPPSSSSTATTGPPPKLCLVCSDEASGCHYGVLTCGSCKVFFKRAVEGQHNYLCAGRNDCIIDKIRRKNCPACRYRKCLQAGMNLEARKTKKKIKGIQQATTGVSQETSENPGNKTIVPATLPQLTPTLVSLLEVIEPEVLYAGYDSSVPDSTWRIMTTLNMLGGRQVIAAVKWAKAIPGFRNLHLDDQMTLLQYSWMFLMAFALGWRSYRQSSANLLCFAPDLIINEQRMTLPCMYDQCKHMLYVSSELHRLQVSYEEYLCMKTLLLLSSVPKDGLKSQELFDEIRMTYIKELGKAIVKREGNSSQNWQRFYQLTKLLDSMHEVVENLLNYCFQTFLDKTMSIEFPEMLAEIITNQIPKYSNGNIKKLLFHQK
From the text: Trans-Activation Modulation of Glucocorticoid Receptor (GRAMMER)
This assay assesses the ability of test compounds to control transcription from the MMTV-LUC reporter gene in lung adenocarcinoma A549 cells or HeLa cells, a human […] cell line that naturally expresses the human GR. The assay measures induction of a modified MMTV LTR/promoter linked to the LUC reporter gene.
The routine transient assay consists of plating 7,000-25,000 cells/well of a white, clear-bottom 96-well plate. Alternatively, 384-well plates can be used at a cell concentration of 10,000/well. The media that the cells are plated in is “exponential growth medium” which consists of phenol red-free RPMI1640 containing 10% FBS, 4 mM L-glutamine, 20 mM HEPES, 10 ug/mL human insulin, and 20 ug/mL gentamicin. Incubator conditions are 37° C. and 5% CO2. The transfection is done in batch mode. The cells are trypsinized and counted to the right cell number in the proper amount of fresh media. It is then gently mixed with the FuGene6/DNA mix and plated onto the 96 or 384-well plate, all the wells receive 100 uL or 40 uL, respectively, of medium+lipid/DNA complex then incubated 37° C. overnight. The transfection cocktail consists of serum-free OptiMEM, FuGene6 reagent and DNA. The manufacturer's (Roche Biochemical) protocol for cocktail setup is as follows: The lipid to DNA ratio is approximately 2.5:1 and the incubation time is 20 min at room temperature. Sixteen to 24 hours after transfection, the cells are treated with dexamethasone to a final concentration of 10 nM as well as the compound of interest, such that final DMSO (vehicle) concentration is equal to or less than 1%. Each plate also contains samples that are treated with 10 nM dexamethasone alone, which is used as the 100% activity control. The cells are exposed to the compounds for 24 hours. After 24 hours, the cells are lysed by a Promega cell culture lysis buffer for approximately 30 min and then the luciferase activity in the extracts is assayed in the 96-well format luminometer. In 384-well format, Steady-Glo (Promega) or Steady-Lite (PerkinElmer) can be used by adding an equal volume of reagent to the media present in each well. Activity induced by 10 nM dexamethasone alone is set at 100% activity. Antagonist activity is calculated by determining the decrease in dexamethasone-induced activity in response to compound treatment relative to samples that were treated with dexamethasone alone. […] This transactivation assay can be performed in an agonist and antagonist mode to identify these different activities. […]

human GR [2] = biological target: T1, human GR; experiment: Transrepression Assay (GITAR), TNFα-β-lactamase reporter gene in U937 cells; type: cell-based; set-up: U937 cells contain an endogenous glucocorticoid receptor (GR); endogenous in cells; host or cells: U937 cells stably transfected with the TNF-α promoter/β-lactamase reporter only; details: for EC50: IP = inflection point; for GITAR > GRAMM % SEP: separation of GITAR Emax over GRAMMER Emax; for Emax: U-937
How it was run: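 Reporter readout used CCF2-AM loading for 70–90 min at room temperature after overnight (~18 h, 37 °C) PMA (5 ng/ml final) and LPS (100 ng/ml final) stimulation of compound-treated (30–45 min) TNFα-β-lactamase U937 cells expressing native GR. Activity was normalised to 100 nM dexamethasone repression.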

[3] = read-out: Transactivation A549 Cells GRAMMER Emax (%)
[4] = Table 1, read-out: Transactivation A549 Cells GRAMMER IP
[5] = Table 1, U937 cells, read-out: Transrepression U937 Cells GITAR IP
[6] = 100 nM dexamethasone = 100% activity, read-out: maximal activity in the transrepression assay
[7] = Table 1, U937 cells, activity repressed by 100 nM dexamethasone = 100%, read-out: Transrepression U937 Cells GITAR Emax (%)

| SMILES | Emax (human GR [1]; read-out: Transactiviation A549 Cells GRAMMER Emax (%)) [%] | EC50 (human GR [1]; Table 2, read-out: Transactiviation A549 Cells GRAMMER IP) [nM] | EC50 (human GR [2]; Table 2, U937 cells, read-out: Transactiviation U937 Cells GITAR IP) [nM] | GITAR > GRAMM % SEP (human GR [2]; Table 2) [%] | Emax (human GR [2]; Table 2, U937 cells, activity repressed by 100 nM dexamethasone = 100%, read-out: Transactiviation U937 Cells GITAR Emax (%)) [%] | Emax (human GR [1]; [3]) [%] | EC50 (human GR [1]; [4]) [nM] | EC50 (human GR [2]; [5]) [nM] | GITAR > GRAMM % SEP (human GR [2]; Table 1) [%] | Emax (human GR [2]; [6]) [%] | Emax (human GR [2]; [7]) [%] |
| --- | --- | --- | --- | --- | --- | --- | --- | --- | --- | --- | --- |
| C[C@]12Cc3cnn(-c4ccc(F)cc4)c3C=C1CCC[C@@H]2[C@@H](O)Cc1ccccc1 [Example 22 WO 03/086294 A2, reference compound] | 85 | 109 | 327 | −14 | 71 |  |  |  |  |  |  |
| CNC(=O)Cc1ccccc1CC[C@]1(O)CCC2=Cc3c(cnn3-c3ccc(F)cc3)C[C@@]21C [Example 23, 2-(2-{2-[(4αS,5R)-1-(4-fluorophenyl)-5-hydroxy-4α-methyl-1,4,4α,5,6,7-hexahydrocyclopenta[f]indazol-5-yl]ethyl}phenyl)-N-methylacetamide] |  |  |  |  |  | 36 | 268 | 263 | 37 | 5 to 100 | 73 |
| COC(=O)C1(NC(=O)c2ccccc2CC[C@]2(O)CCC3=Cc4c(cnn4-c4ccc(F)cc4)C[C@@]32C)CC1 [Example 26, methyl 1-[(2-{2-[(4αS,5R)-1-(4-fluorophenyl)-5-hydroxy-4α-methyl-1,4,4α,5,6,7-hexahydrocyclopenta[f]indazol-5-yl]ethyl}benzoyl)amino]cyclopropanecarboxylate] |  |  |  |  |  | 24 | 39 | 123 | 15 | 5 to 100 | 39 |
| CC1(NC(=O)c2ccccc2CC[C@]2(O)CCC3=Cc4c(cnn4-c4ccc(F)cc4)C[C@@]32C)CC1 [Example 28, 2-{2-[(4αS,5R)-1-(4-fluorophenyl)-5-hydroxy-4α-methyl-1,4,4α,5,6,7-hexahydrocyclopenta[f]indazol-5-yl]ethyl}-N-(1-methylcyclopropyl)benzamide] |  |  |  |  |  | 28 | 48 | 65 | 43 | 5 to 100 | 72 |
| CC(C)CNC(=O)c1ccccc1CC[C@]1(O)CCC2=Cc3c(cnn3-c3ccc(F)cc3)C[C@@]21C [Example 29, 2-{2-[(4αS,5R)-1-(4-fluorophenyl)-5-hydroxy-4α-methyl-1,4,4α,5,6,7-hexahydrocyclopenta[f]indazol-5-yl]ethyl}-N-isobutylbenzamide] |  |  |  |  |  | 24 | 95 | 190 | 37 | 5 to 100 | 61 |

Next, values leading:

| Emax (human GR [1]; read-out: Transactiviation A549 Cells GRAMMER Emax (%)) [%] | EC50 (human GR [1]; Table 2, read-out: Transactiviation A549 Cells GRAMMER IP) [nM] | EC50 (human GR [2]; Table 2, U937 cells, read-out: Transactiviation U937 Cells GITAR IP) [nM] | GITAR > GRAMM % SEP (human GR [2]; Table 2) [%] | Emax (human GR [2]; Table 2, U937 cells, activity repressed by 100 nM dexamethasone = 100%, read-out: Transactiviation U937 Cells GITAR Emax (%)) [%] | Emax (human GR [1]; [3]) [%] | EC50 (human GR [1]; [4]) [nM] | EC50 (human GR [2]; [5]) [nM] | GITAR > GRAMM % SEP (human GR [2]; Table 1) [%] | Emax (human GR [2]; [6]) [%] | Emax (human GR [2]; [7]) [%] | SMILES |
| --- | --- | --- | --- | --- | --- | --- | --- | --- | --- | --- | --- |
|  |  |  |  |  | 29 | 81 | 127 | 21 | 5 to 100 | 50 | CCCNC(=O)c1ccccc1CC[C@]1(O)CCC2=Cc3c(cnn3-c3ccc(F)cc3)C[C@@]21C [Example 30, 2-{2-[(4αS,5R)-1-(4-fluorophenyl)-5-hydroxy-4α-methyl-1,4,4α,5,6,7-hexahydrocyclopenta[f]indazol-5-yl]ethyl}-N-propylbenzamide] |
|  |  |  |  |  | 9 | 93 | 183 | 39 | 5 to 100 | 48 | CC(CNC(=O)c1ccccc1CC[C@]1(O)CCC2=Cc3c(cnn3-c3ccc(F)cc3)C[C@@]21C)C(F)(F)F (stereo partly drawn) [Example 31, 2-{2-[(4αS,5R)-1-(4-fluorophenyl)-5-hydroxy-4α-methyl-1,4,4α,5,6,7-hexahydrocyclopenta[f]indazol-5-yl]ethyl}-N-(3,3,3-trifluoro-2-methylpropyl)benzamide] |
|  |  |  |  |  | 13 | 134 | 277 | 36 | 5 to 100 | 49 | C=C(C)CNC(=O)c1ccccc1CC[C@]1(O)CCC2=Cc3c(cnn3-c3ccc(F)cc3)C[C@@]21C [Example 32, 2-{2-[(4αS,5R)-1-(4-fluorophenyl)-5-hydroxy-4α-methyl-1,4,4α,5,6,7-hexahydrocyclopenta[f]indazol-5-yl]ethyl}-N-(2-methylprop-2-en-1-yl)benzamide] |
|  |  |  |  |  | 37 | 62 | 123 | 25 | 5 to 100 | 62 | C=CCNC(=O)c1ccccc1CC[C@]1(O)CCC2=Cc3c(cnn3-c3ccc(F)cc3)C[C@@]21C [Example 33, N-allyl-2-{2-[(4αS,5R)-1-(4-fluorophenyl)-5-hydroxy-4α-methyl-1,4,4α,5,6,7-hexahydrocyclopenta[f]indazol-5-yl]ethyl}benzamide] |
|  |  |  |  |  | 13 | 128 | 208 | 41 | 5 to 100 | 54 | CC1(NC(=O)c2ccccc2CC[C@]2(O)CCC3=Cc4c(cnn4-c4ccccc4)C[C@@]32C)CC1 [Example 34, 2-{2-[(4αS,5R)-5-hydroxy-4α-methyl-1-phenyl-1,4,4α,5,6,7-hexahydrocyclopenta[f]indazol-5-yl]ethyl}-N-(1-methylcyclopropyl)benzamide] |
|  |  |  |  |  | 48 | 60 | 170 | 14 | 5 to 100 | 62 | CC(C)NC(=O)c1ccccc1CC[C@]1(O)CCC2=Cc3c(cnn3-c3ccc(F)cc3)C[C@@]21C [Example 35, 2-{2-[(4αS,5R)-1-(4-fluorophenyl)-5-hydroxy-4α-methyl-1,4,4α,5,6,7-hexahydrocyclopenta[f]indazol-5-yl]ethyl}-N-isopropylbenzamide] |
|  |  |  |  |  | 57 | 65 | 81 | 1 | 5 to 100 | 58 | C[C@]12Cc3cnn(-c4ccc(F)cc4)c3C=C1CC[C@@]2(O)CCc1ccccc1C(=O)NCC1CC1 [Example 37, N-(cyclopropylmethyl)-2-{2-[(4αS,5R)-1-(4-fluorophenyl)-5-hydroxy-4α-methyl-1,4,4α,5,6,7-hexahydrocyclopenta[r]indazol-5-yl]ethyl}benzamide] |

Source: patent publication US8119681B2, “2-[1-phenyl-5-hydroxy or methoxy-4alpha-methyl-hexahydrocyclopenta [ƒ]indazole-5-YL]ethyl phenyl derivatives as glucocorticoid receptor ligands” (Merck Sharp & Dohme Corp., priority 2006, dated 2012)
